Experimental data: US20240207650A1, “ULTRASOUND-INDUCED MICROBUBBLE DRUG DELIVERY SYSTEM LOADING STABILIZED HYDROPHOBIC DRUG WITH POLYETHYLENE GLYCOL BASED NONIONIC SURFACTANT AND METHOD OF MANUFACTURING THE SAME” (SAHMYOOK UNIVERSITY INDUSTRY-ACADEMIC COOPERATION FOUNDATION, priority 2022, published 2024)

Tested on: U87MG cells
Experiment: Cytotoxic experiment, cell viability with tetrazolium salt derivatives
Type: cell-based
Conditions: 72 hours, free drug 0.01-100 μM, FIG. 5
Experimental: An experiment is performed to identify cytotoxicity of the manufactured microbubble drug delivery system and the drug delivery system loading the drugs. The experiment is performed after an experimental group manufactured by using the method in Example 1-2 (microbubble drug delivery system loading paclitaxel PTX@MB) and a control group (microbubble without loaded drugs MB) are deaerated to burst bubbles. Each solution is added to U87MG cells to respectively set final concentrations to 10%, 1%, 0.1%, 0.01%, and 0.001% and final concentrations of free paclitaxel are respectively set to 100 μM, 10 μM, 1 μM, 0.1 μM, and 0.01 μM. 5000 cells are grown in each well and cells are cultured for 72 hours. Then, a solution containing a cell culture fluid and tetrazolium salt derivatives are added to measure cell viability and in-vitro cytotoxicity of each material is identified.

CC(=O)O[C@H]1C(=O)[C@@]2(C)[C@H]([C@H](OC(=O)c3ccccc3)[C@]3(O)C[C@H](OC(=O)[C@H](O)[C@@H](NC(=O)c4ccccc4)c4ccccc4)C(C)=C1C3(C)C)[C@]1(OC(C)=O)CO[C@@H]1C[C@@H]2O [free paclitaxel, Paclitaxel]
concentration at which cytotoxicity is identified: above 1 μM
